# How the values were obtained:
# Assay type in all cases: cell-based, human
# [1] = tested on: SW620; assay: Superoxide anion level, DHE probe; settings: compound at IC50, 24 h, vs control
# Protocol: (§1) Superoxide anion (O2^•−) levels were quantified using a microplate spectrofluorometric assay with dihydroethidium (DHE) (Life Technologies, Carlsbad, CA, USA). DHE is a well-established fluorogenic probe for intracellular superoxide detection. […] The reaction between superoxide and DHE produces a highly specific red fluorescent product, 2-hydroxyethidium (2-OH-E ^+).
# (§2) Cells were seeded in black 96-well fluorometric microplates at a density of 10 × 10^3 cells/mL. […] Following compound incubation, the medium was removed, and the cell monolayers were washed twice with HBSS (140 mM NaCl, 5 mM KCl, 0.8 mM MgCl2, 1.8 mM CaCl2, 1 mM Na2HPO4, 10 mM HEPES, and 1% glucose). A volume of 50 µL of DHE solution in HBSS (final concentration 5 μM) was added to each well, and the cells were incubated for 30 min in the dark at 37 °C. After incubation with the DHE, fluorescence measurements were conducted using a Perkin-Elmer LS-5B spectrofluorometer (Waltham, MA, USA) at the following excitation and fluorescence emission wavelengths: λex = 498 nm/λem = 582 nm. The fluorescence intensity of control cells was arbitrarily assigned a value of 100%. The results were expressed as percentages of control, calculated by comparing the fluorescence intensity ratio of the test samples to controls (100%). The fluorescence of samples was denoted as Δf in relation to the control.
# [2] = tested on: Caco-2; assay: Superoxide anion level, DHE probe; settings: compound at IC50, 24 h, vs control
# Protocol: as §1, §2
# [3] = tested on: HCT 116; assay: Superoxide anion level, DHE probe; settings: compound at IC50, 24 h, vs control
# Protocol: as §1, §2
# [4] = tested on: Caco-2; assay: Autophagy induction, monodansylcadaverine (MDC) fluorescence; settings: compound at IC50, 24 h, vs control
# Protocol: Autophagy induction in cells treated with the tested drugs was determined by measuring Monodansylcadaverine (MDC; Sigma-Aldrich; St. Louis, MO, USA) fluorescence according to a modified method described by Vázquez. […] In the cell, MDC accumulates in lipid-rich cell membranes. It has been shown that MDC can be used as a dye for detecting autophagy, as it accumulates in autophagolysosomes as a result of interaction with membrane lipids.
# Cells were seeded in black 96-well fluorometric microplates at a density of 10 × 10^3 cells/mL. […] Following compound incubation, the medium was removed, and the cell monolayers were washed twice with HBSS (140 mM NaCl, 5 mM KCl, 0.8 mM MgCl2, 1.8 mM CaCl2, 1 mM Na2HPO4, 10 mM HEPES, and 1% glucose). A solution of MDC at a final concentration of 50 μM was added to each well and incubated in a CO2 cell culture incubator at 37 °C for 15 min. After incubation with MDC, the probe was removed, and the cells were lysed with 50 μL of lysis buffer (10 mM TRIS-HCl; pH 8 containing 0.1% Triton X-100). After lysis, fluorescence was measured at an excitation wavelength of λex = 390 nm and an emission wavelength of λem = 460 nm using a Perkin-Elmer LS-5B spectrofluorometer (Waltham, MA, USA). In order to normalize the number of cells in individual samples, the amount of DNA was determined by adding 50 μL of EB (final concentration 0.2 mM) to each well after measuring the MCB fluorescence and measuring the EB fluorescence at an excitation wavelength of λex = 530 nm and an emission wavelength of λem = 590 nm. The results were calculated as the ratio of MDC fluorescence to EB fluorescence.
# [5] = tested on: Caco-2; assay: Mitochondrial membrane potential (ΔΨm), JC-1 probe; settings: compound at IC50, vs control
# Source text: (§3) Changes in mitochondrial potential in cancer cells exposed to the tested derivatives were monitored using the fluorescent probe JC-1. In non-apoptotic cells, JC-1 aggregates emit red-orange fluorescence. During changes in mitochondrial membrane potential, such as those associated with the initiation of PCD stages (both hyperpolarization and depolarization of mitochondrial membranes), JC-1 is converted to monomers, emitting green fluorescence.
# (§4) 5,5,6,6-Tetrachloro-1,1,3,3-tetraethylbenzimidazolylcarbocyanine iodide (JC-1) is one of the most reliable fluorescent probes used to assess changes in mitochondrial membrane potential (ΔΨ). In living cells with intact mitochondrial membranes, the lipophilic, cationic dye JC-1 penetrates the negatively charged mitochondrial matrix as a monomer, where it forms fluorescent aggregates with red-orange fluorescence (λex = 514 nm, λem = 590). […] The fluorescence ratio of aggregates (λem = 590 nm) and monomers (λem = 529 nm)—590 nm/529 nm—reflects the level of damage to the mitochondrial membrane.
# (§5) Cells were seeded in black 96-well fluorometric microplates at a density of 10 × 10^3 cells/mL. […] Following treatment, the medium was removed, and the cell monolayers were washed twice with HBSS (140 mM NaCl, 5 mM KCl, 0.8 mM MgCl2, 1.8 mM CaCl2, 1 mM Na2HPO4, 10 mM HEPES, and 1% glucose). Then, 50 μL of a JC-1 solution in HBSS was added to each well, and the cells were incubated for 30 min in the dark at 37 °C (final JC-1 concentration 5 μM). After removing the fluorescent dye and replacing it with fresh HBSS, fluorescence measurements were taken using a Perkin-Elmer LS-5B spectrofluorometer (Perkin-Elmer LS-5B spectrofluorometer, Waltham, MA, USA). The excitation and emission wavelengths for JC-1 monomers were 514 nm and 529 nm, respectively, while for aggregates, they were 514 nm and 590 nm. The results were expressed as a percentage change in the fluorescence ratio of JC-1 aggregates to JC-1 monomers compared to the control, which was set at 100%.
# [6] = tested on: HCT 116; assay: Mitochondrial membrane potential (ΔΨm), JC-1 probe; settings: compound at IC50, vs control
# Source text: as §3, §4, §5
# [7] = tested on: LoVo; assay: Mitochondrial membrane potential (ΔΨm), JC-1 probe; settings: compound at IC50, vs control
# Source text: as §3, §4, §5
# [8] = tested on: SW620; assay: MTT test after pre-incubation with antioxidants NAC or Trolox; settings: vs cells without antioxidant pre-incubation
# Protocol: Moreover, the elevation of ROS levels was accompanied by a decrease in intracellular GSH. To investigate the role of ROS in the cytotoxic activity of flavonoid derivatives against cancer cells, LoVo cancer cells were pre-treated with antioxidants, NAC or a water-soluble derivative of vitamin E (Trolox), for 1 h before exposure to the studied compounds. Subsequently, the MTT assay was performed.
# To elucidate the involvement of ROS in the cytotoxic effects of the investigated compounds, cells were pre-treated with the vitamin E (Trolox, Sigma-Aldrich, St. Louis, MO, USA) or N-Acetylcysteine (NAC) antioxidants for 1 h. Cells were seeded into sterile, colorless 96-well microplates at a density of 6–8 × 10^3 cells/mL, contingent upon the cell line. Following a 24 h culture period, Trolox or NAC was added at a final concentration of 50 μM and 3 mM, respectively. After 1 h of incubation, the antioxidants were removed by washing, and test compounds were administered at appropriate concentrations (10–200 μM) in fresh cell culture medium, followed by a 24 h incubation. The MTT assay was then conducted under identical experimental conditions, as detailed in Section 2.2.
SMILES,Increase in O2−• (superoxide anion) levels [1],Increase in O2−• (superoxide anion) levels [2] [%],Increase in O2−• (superoxide anion) levels [3],Increase in MDC fluorescence intensity (autophagy) [4] [%],Decrease in ΔΨm (depolarization) [5],Change in mitochondrial membrane potential ΔΨm [6],Decrease in ΔΨm (depolarization) [7],Change of the IC50 value after pre-incubation with Trolox [8]
O=C1/C(=C/c2ccccc2)COc2ccccc21 [Compound 1],10–15%,30,10–15%,25,~ 30%,no statistically significant changes,~ 20%,
O=C1/C(=C/c2ccccc2)C(c2ccccc2)Oc2ccccc21 (centres unmarked) [Compound 5],,,,,,,,Statistically significant increases in the IC50 value

# Reference: publication PMC11641365, “Evaluation of In Vitro Biological Activity of Flavanone/Chromanone Derivatives: Molecular Analysis of Anticancer Mechanisms in Colorectal Cancer” (International Journal of Molecular Sciences, 2024)
